Laboratory results reported in patent publication US20260069606A1, “Oxidative Stress and Diabetes Treatment with Cobinamide” (The Regents of the University of California, priority 2022, published 2026).

Legend:
[1] = tested on: COS-7 cells; settings: COS-7, 1 mM paraquat 3 h, 100 μM drug, counted 48 h later
Procedure: (§1) FIGS. 3A-3H. […] FIGS. 3A-3B. […] FIG. 3A. […] FIG. 3B. […] FIGS. 3C-3D. […] FIG. 3D. […] FIGS. 3E-3F. […] FIG. 3E. Representative blots are shown. […] FIG. 3F. […] FIG. 3G. […] FIG. 3H.
Finally, whether cobinamide could alleviate the effects of oxidative stress induced by yet another mechanism in a different cell type was tested using paraquat-treated COS-7 cells. Paraquat generates O2·^− through a redox cycling mechanism and increases both intracellular O2·^− and H2O2^42.

[2] = second order; literature values; cited from earlier work
[3] = tested on: Jun N-terminal kinase (JNK) phosphorylation in H9c2 cells; test: H2O2-induced JNK phosphorylation, immunoblotting; type: cell-based, rat; settings: H9c2, 100 μM H2O2 30 min, drugs at 100 μM
Text: as §1

[4] = tested on: D. melanogaster; test: Survival of fruit flies during paraquat poisoning; type: in vivo; settings: 20 mM paraquat with 0.8 mM drug in food, over 7 d
Procedure: The number of live flies was counted each day for 7 d. The experiment was repeated seven times, for a total of 70 flies per condition. The percent surviving flies was calculated; error bars represent standard deviations and are shown in one direction only for sake of clarity. […] Chi, cobinamide in Panel A and histidyl-cobinamide in Panels B-K; Imp, imisopasem; MnTP, MnTBAP; CbL, cobalamin; DNPH, 2,4-dinitrophenylhydrazine; ND, non-diabetic; D, diabetic; Veh, vehicle.
To test cobinamide in a whole animal, D. melanogaster was selected for initial studies, and oxidative stressed was increased in the files by administering paraquat in their food. Cobinamide was again compared to imisopasem, MnTBAP, and hydroxocobalamin, all administered in food.

[5] = tested on: H9c2 rat embryonal cardiomyocytes; test: Mitochondrial superoxide content, MitoSOX Red fluorescence; type: cell-based; settings: H9c2, 5 μM rotenone 30 min, drugs at 2.5 μM
Procedure: as §1
H9c2 cells were plated on glass cover slips in 24 well dishes, and 16 h later the medium was changed to phenol red-free DMEM supplemented with 20 mM Hepes, 0.1% fetal bovine serum, and 0.5% bovine serum albumin. […] MitoSOX Red is a dihydroethidium derivative containing triphenyl-phosphonium, which localizes it to respiring mitochondria. Its reaction with O2·^− yields 2-hydroxy-mitoethidium (2-OH-Mito-E″), whereas its reaction with other oxidative species yields mitoethidium (Mito-E^+)^67. These two oxidative derivatives have overlapping fluorescence spectra, but they can be distinguished by high performance liquid chromatography (HPLC)^68. Rotenone increased 2-OH-Mito-E^+ about two-fold, without increasing Mito-E^+. Thus, any increased fluorescence observed on treating cells with rotenone could be ascribed to an increase in 2-OH-Mito-E^+, and decreased fluorescence by an anti-oxidant in rotenone-treated cells was likely from a decrease in 2-OH-Mito-E^+.
(§2) The cells were then washed once with PBS, placed back in the DMEM experimental medium, and incubated with the indicated drugs for 30 min. At the end of the incubation period, nuclei of both the MitoSOX Red- and JC-1-treated cells were stained with […] 4′,6-diamidino-2-phenyl-indole (DAPI) for 3 min, washed once with PBS, and returned to the DMEM experimental medium. The cover slips were removed from the wells, mounted in the DMEM experimental medium, and red (MitoSOX Red and JC-1 aggregates), green (JC-1 monomers), and blue (DAPI) fluorescence intensity was assessed using a Keyence BZ-X700 fluorescence microscope at the following paired excitation/emission wavelengths, respectively: 560/630, 490/525, and 360/460 nm.
To assess if cobinamide reduces oxidative stress in cells and to compare its […] efficacy to that of cobalamin, imisopasem, and MnTBAP, several sets of experiments were performed. First, whether cobinamide reduces mitochondrial-generated O2·^− was evaluated using the fluorescent probe MitoSOX Red. H9c2 rat embryonal cardiomyocytes were treated with rotenone, an inhibitor of complex I, to increase mitochondrial O2·^−. […] Monitoring the UV-visible spectrum of cobinamide is a sensitive means to assess ligand binding^38.

[6] = second order; literature values; cited from earlier work; remark: listed apart in the source
[7] = tested on: H9c2 cells; test: Mitochondrial membrane potential, JC-1 red to green fluorescence; type: cell-based, rat; settings: H9c2, 5 μM rotenone 30 min, drugs at 2.5 μM
Procedure: as §1, §2
Increased mitochondrial O2·^− by rotenone would be expected to reduce the mitochondrial membrane potential (ΔΨm), due in part to activation of uncoupling proteins^39. […] Rotenone caused an almost complete loss of red fluorescence and a striking increase in green fluorescence in the cells, indicating a marked decrease in ΔΨm (FIGS. 3C-3D).

[8] = literature values; not strictly comparable with third-order constants; cited from earlier work
[9] = literature values, cited from earlier work
[10] = mouse, in vivo
Procedure: It seemed possible, therefore, that the cobinamide administered to the mice could have increased their blood pressure, since ·NO is a potent vasodilator. Because diabetes can increase blood pressure, these studies were performed on a parallel set of non-diabetic mice of the same strain and sex and using the same concentration of histidyl-cobinamide in the drinking water as in the above-described studies.

Row | Oxidation in the presence of oxygen | Compound | Effect on cell growth of paraquat-treated cells [1] | Rate constant, reaction with superoxide (O2·^−), published [2] [M⁻¹ s⁻¹] | JNK phosphorylation in H2O2-treated cells [3] | Effect on mortality of paraquat-exposed flies [4] | MitoSOX red fluorescence in rotenone-treated cells [5] | Rate constant, reaction with peroxynitrite (ONOO^−), published [6] | JC-1 red to green fluorescence ratio (ΔΨm) in rotenone-treated cells [7] | Rate constant, reaction with hydrogen peroxide (H2O2), published [8] | Rate constant, reaction with nitric oxide (·NO), published ([9]; second order) | Blood pressure [10] | Ka, binding of nitric oxide (·NO), published [9]
1 | – | [Cl-].[Cl-].[Mn+2].c1cc2nc(c1)CN[C@@H]1CCCC[C@H]1NCCN[C@@H]1CCCC[C@H]1NC2 [Imisopasem, imisopasem manganese] | neither imisopasem nor MnTBAP had an effect | 1.6e+07 | small non-significant effects | no significant effect | reduced the fluorescent signal substantially | No activity (26) | modest degrees of recovery | 8.2 | No activity (26) | – | –
2 | – | histidyl-cobinamide | – | – | – | – | – | – | – | – | – | No difference in the blood pressure | –
3 | rapidly oxidized back to cobalamin(III) | C/C1=C2/[N-][C@H]([C@H](CC(N)=O)[C@@]2(C)CCC(=O)NC[C@H](C)OP(=O)([O-])O[C@H]2[C@@H](O)[C@@H](n3cnc4cc(C)c(C)cc43)O[C@@H]2CO)[C@]2(C)N=C(/C(C)=C3N=C(/C=C4N=C1[C@@H](CCC(N)=O)C\4(C)C)[C@@H](CCC(N)=O)[C@]\3(C)CC(N)=O)[C@@H](CCC(N)=O)[C@]2(C)CC(N)=O.[Co+2] (stereo in doubt) [Cobalamin(II)] | – | 3.8e+08 | – | – | – | 3.7 × 10^5 (14) M^−1 s^−1 | – | 1.4 × 10^2 | – | – | Ka: 1.5 × 10^8 (51) M^−1
